In test [1] the target is T1, VEGFR2 (Homo sapiens, UniProt P35968).
T1 construct: purchased R&D Systems
Put plainly: Fluorescence-based ELISA, VEGFR2 binding. The note with it: vs GU40C4 (ref 12). The method, then: Wells were washed with 5 × 200 μL of PBS and fluorescence was measured at 520 nm using a plate reader (Fluostar Optima, BMG Laboratories, Durham, NC).
(An ELISA detects its analyte on a solid surface through an enzyme-linked reagent.)

Test [2] relates to MMTV-PyMT tumors. The conditions noted are these: cited from earlier work. From the text:
Macrophage infiltration is associated with poor prognosis in a number of different tumor types, including breast cancer. […] This increase in macrophage infiltration is puzzling ...

For test [3], the target named is T2, VEGFR2 (PAE-KDR cells) (Homo sapiens, UniProt P35968).
T2 construct: host or cells: PAE-KDR cells
Put plainly: VEGFR2 autophosphorylation assay, PAE-KDR cells. The test is classed as cell-based. On the procedure: Experiments were conducted using PAE-KDR (Sibtech Inc., Brookfield, CT) and HUVEC (Sciencecell, Carlsbad, CA) cells. […] Cells were harvested with lysis buffer, and lysates were separated by SDS-PAGE and transferred to PVDF membranes. Membranes were probed with anti phospho-VEGF receptor 2 (Tyr1175, 19A10) or total anti-VEGFR2 primary antibodies (Cell Signaling Technology, Danvers, MA) and subsequently developed with appropriate HRP-conjugated secondary antibody (BioRad Laboratories, Hercules, CA) followed by enhanced chemiluminescent detection (Pierce).

For test [4], the system named is MMTV-PyMT transgenic model of breast cancer. Put plainly: MMTV-PyMT breast cancer therapy study: tumor volume, tumor weight, efficacy. The note with it: for tumor volume vs control: MMTV-PyMT mice, 19 days from age 6 weeks, GU81 260 μg/day osmotic pump, doxorubicin 2 mg/kg once weekly, 2-way ANOVA; for total tumor weight vs control: at sacrifice (age 60 days), p ≤ 0.01 for combination, 1-way ANOVA.

In test [5] the test system is MMTV-PyMT tumors. Put plainly: Perilipin and adiponectin immunohistochemistry of MMTV-PyMT tumors (tumor fat content). The conditions noted are these: for tumor fat content (residual adipose tissue): MMTV-PyMT tumors after 19 days treatment, H&E and adipocyte markers.
The test system of test [6] is MMTV-PyMT tumors. Put plainly: Tumor VEGF immunohistochemistry. The note with it: percent VEGF positive area, vs control, p ≤ 0.05 for GU81 alone, t-test; 3 animals/group, 5 sections/animal.
In test [7] the test system is Met-1 cells. The conditions noted are these: GU81 treatment, mRNA and protein.
The test system of test [8] is HUVEC. The note with it: when compared to GU40C4.
The subject of test [9] is 4T1 syngenic breast cancer model. The conditions noted are these: 4T1 syngeneic model; cited from earlier work.
Test [10] concerns MMTV-PyMT transgenic model of breast cancer. The conditions noted are these: cited from earlier work.
The subject of test [11] is Met-1 cells. The conditions noted are these: 2.5 μM GU81, 72 hours, serum-free DMEM, p < 0.05 vs SFM, 1-way ANOVA. The method, then:
Tumor-conditioned media (TCM) was collected and RNA harvested using TRIzol (Invitrogen) according to the manufacturer's directions at 24, 48, and 72 hours post-treatment. The quality of RNA was evaluated using spectrophotometry. The cDNA used for subsequent PCR was made using iScript (Bio-Rad Laboratories). The expression of VEGF was analyzed by quantitative real-time PCR using assay on demand from Applied Biosystems (Mm00437308_m1). […] Quantitative real-time PCR was performed in a reaction volume of 20 μL of cDNA and each reaction was performed in triplicate. We used the comparative Ct method to compute relative expression values. TCM was diluted 1:5 prior to analysis for VEGF concentration using the Quantikine Mouse VEGF Immunoassay (R&D Systems).
Results are expressed as mean ± SEM.

Test [12] relates to MMTV-PyMT tumors. Put plainly: H&E histology of MMTV-PyMT tumors. The note with it: formalin-fixed tumors after 19 days treatment.
Test [13] relates to MMTV-PyMT tumors. Put plainly: Endomucin immunohistochemistry (vessel number, vascular area, vessel size).
The subject of test [14] is MMTV-PyMT tumors. Put plainly: F4/80 macrophage infiltration immunohistochemistry. The note with it: percent F4/80 positive area, p ≤ 0.05 vs control, t-test; 3 animals/group, 5 sections/animal.
Test [15] relates to MMTV-PyMT tumors.

“Also recorded” adds a separate entry of the source. Numbered stars: 1 amine (or outer) side, 2 acyl side, 3 side chain; on linkers, the order of the positions; unused ones are H or OH. Bridge positions count the residues as written; N and C are the ends. Square brackets hold non-standard residues; d marks the D form. Peptide text beside a SMILES is read from it. I, II: the chains in the order shown. Gly(N-piperonyl) = O=C(O)CNCc1ccc2c(c1)OCO2; X1 = CC(CN(CC(=O)[*:2])[*:1])c1ccccc1; Nleu = CC(C)CNCC(=O)O; Nlys = NCCCCNCC(=O)O; Ahx = NCCCCCC(=O)O; Nme = COCCNCC(=O)O; βAla = NCCC(=O)O

T2 sequence (P35968 20-1356): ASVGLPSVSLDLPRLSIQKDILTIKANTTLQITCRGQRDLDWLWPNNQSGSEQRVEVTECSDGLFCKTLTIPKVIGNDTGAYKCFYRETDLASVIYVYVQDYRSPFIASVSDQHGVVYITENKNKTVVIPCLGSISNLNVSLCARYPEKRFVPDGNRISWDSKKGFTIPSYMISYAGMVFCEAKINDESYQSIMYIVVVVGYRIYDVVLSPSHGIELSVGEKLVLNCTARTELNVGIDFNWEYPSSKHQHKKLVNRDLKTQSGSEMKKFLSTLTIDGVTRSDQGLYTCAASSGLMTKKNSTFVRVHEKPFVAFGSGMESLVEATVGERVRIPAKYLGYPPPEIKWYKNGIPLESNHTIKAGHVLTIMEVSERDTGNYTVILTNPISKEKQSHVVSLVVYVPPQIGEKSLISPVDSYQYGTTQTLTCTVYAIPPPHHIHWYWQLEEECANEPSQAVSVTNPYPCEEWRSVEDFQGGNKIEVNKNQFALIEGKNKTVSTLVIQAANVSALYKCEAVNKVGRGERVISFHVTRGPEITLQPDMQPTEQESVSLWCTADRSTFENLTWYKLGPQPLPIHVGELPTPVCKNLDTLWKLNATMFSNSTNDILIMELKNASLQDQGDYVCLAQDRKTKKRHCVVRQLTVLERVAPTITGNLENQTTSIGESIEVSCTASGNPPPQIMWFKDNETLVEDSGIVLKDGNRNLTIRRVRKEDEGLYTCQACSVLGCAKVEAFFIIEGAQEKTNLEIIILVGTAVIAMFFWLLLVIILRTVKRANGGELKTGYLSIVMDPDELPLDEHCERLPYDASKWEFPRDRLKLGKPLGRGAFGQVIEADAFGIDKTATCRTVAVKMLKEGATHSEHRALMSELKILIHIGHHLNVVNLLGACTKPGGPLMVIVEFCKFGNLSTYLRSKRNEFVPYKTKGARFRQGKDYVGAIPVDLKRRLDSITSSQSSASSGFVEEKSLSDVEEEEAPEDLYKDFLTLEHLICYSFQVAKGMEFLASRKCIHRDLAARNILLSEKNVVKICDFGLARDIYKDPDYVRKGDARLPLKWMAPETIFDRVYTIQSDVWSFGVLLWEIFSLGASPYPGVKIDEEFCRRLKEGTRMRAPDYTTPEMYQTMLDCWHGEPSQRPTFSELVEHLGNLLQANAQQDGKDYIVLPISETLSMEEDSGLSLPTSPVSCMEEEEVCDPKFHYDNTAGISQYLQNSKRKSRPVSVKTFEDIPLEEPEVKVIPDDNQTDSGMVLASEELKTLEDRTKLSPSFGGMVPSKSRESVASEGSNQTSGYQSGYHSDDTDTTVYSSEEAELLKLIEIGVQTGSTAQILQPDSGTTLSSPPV
T1 sequence (P35968 20-1356): as above

As for `COCCN(CC(=O)N(CC(=O)N(CC(=O)N(CCCCN)CC(=O)N(CC(=O)N(CCCCN)CC(=O)N(CCCCN)CC(=O)NCCCCCC(=O)NCCC(=O)N[C@@H](CCCCNC(=O)CN(CCCCN)C(=O)CN(CCCCN)C(=O)CN(CC(C)C)C(=O)CN(CCCCN)C(=O)CN(Cc1ccc2c(c1)OCO2)C(=O)CN(CC(C)c1ccccc1)C(=O)CN(CCOC)C(=O)CN(CC(C)C)C(=O)CNCCCCN)C(N)=O)CC(C)C)Cc1ccc2c(c1)OCO2)CC(C)c1ccccc1)C(=O)CN(CC(C)C)C(=O)CNCCCCN` (stereo partly drawn) [GU81] (I: H-[Nlys][Nleu][Nme][X1][Gly(N-piperonyl)][Nlys][Nleu][Nlys][Nlys][Ahx][βAla]K-NH2 / II: H-[Nlys][Nleu][Nme][X1][Gly(N-piperonyl)][Nlys][Nleu][Nlys][Nlys]; amide I:12-II:C), the “improvement of KD over the original GU40C4” value in [1] is recorded as 3 -fold. In [2], the “macrophage infiltration, single agent” value is recorded as “increases macrophage infiltration as a single-agent”. Further, the “block of VEGF-induced VEGFR2 phosphorylation” value in test [3] (PAE-KDR cells, increasing concentrations of GU81 15 min, VEGF 1.3 nM 7 min, 37°C, Western blot) is given as “effectively blocks VEGF-induced VEGFR2 phosphorylation of PAE-KDR cells in a dose-dependent manner”. In addition, the in vitro efficacy result in test [3] (abstract: compared to GU40C4, discussion: in vitro biological efficacy) is listed as “increased in vitro efficacy compared to GU40C4; also recorded: potent in vitro biological efficacy”. Also, the “therapeutic efficacy in MMTV-PyMT model” value in [4] (GU81 260 μg/day alone or with doxorubicin 2 mg/kg once weekly, 19 days) is “little therapeutic efficacy when used alone; also recorded: not effective as a single agent in the MMTV-PyMT model of breast cancer”. In test [4], the “tumor volume vs control” value is “did not have a significant effect on either tumor volume or tumor weight”. Besides, the “total tumor weight vs control” value in test [4] is reported as “no effect on tumor weight, histology, tumor fat content, or tumor growth index; also recorded: did not have a significant effect on either tumor volume or tumor weight”. Besides, in test [5], the “tumor fat content (residual adipose tissue)” value is on record as “no effect on tumor weight, histology, tumor fat content, or tumor growth index”. The “tumor VEGF level” value in test [6] was “increased tumor-VEGF levels and macrophage infiltration; also recorded: significantly increased levels of VEGF compared to tumors from control-treated mice; also recorded: increased tumor VEGF expression in this model”. In addition, the “VEGF expression in Met-1 cells (discussion)” value in test [7] was “increased VEGF expression following treatment with GU81”. The “expected inhibition of endothelial cell proliferation” value in [8] is “more potent inhibitor of endothelial cell proliferation when compared to GU40C4”. For the same compound, the “tumor size, 4T1 model, single agent” value in test [9] is “effectively reduces tumor size and MVD”. Further, the “in vivo efficacy as a single agent, MMTV-PyMT model” value in test [10] is given as “does not demonstrate in vivo efficacy as a single agent in the MMTV-PyMT model of breast cancer”. In addition, in test [11], the “VEGF mRNA level in Met-1 cells” value is on record as “significantly increased after 72 hours of GU81 treatment; also recorded: significant increase in VEGF gene transcription following 72 hrs of GU81 treatment”. Also, the “tumor histology / progression / invasion” value in test [12] is listed as “no effect on tumor weight, histology, tumor fat content, or tumor growth index; also recorded: did not alter this histology”; in [12] (listed as GUI81) it was “clearly invasive adenocarcinomas”. The total vessel number result in test [13] (endomucin, vessels per 200× field, 3 animals/group, 5 sections/animal) is recorded as “no effect on total vessel number; also recorded: do not see a decrease in vessel number”. The “total vascular area, GU81 alone” value in [13] (percent endomucin positive area per 200× field, vs control, p < 0.001, t-test) was “able to significantly to reduce total vascular area as a single agent; also recorded: decreased total vascular area; also recorded: reduces total vascular area and vessel size; also recorded: decrease in total vascular area and vessel size”. Besides, in test [13] (percent fluorescent area divided by total vessel number, vs control, t-test), the vessel size result is “reduces total vascular area and vessel size; also recorded: decrease in total vascular area and vessel size”. Further, in [14], the “macrophage infiltration vs control” value was “increased tumor-VEGF levels and macrophage infiltration; also recorded: significantly increased following treatment with GU81; also recorded: induces macrophage infiltration in vivo”.
Regarding `COc1cccc2c1C(=O)c1c(O)c3c(c(O)c1C2=O)C[C@@](O)(C(=O)CO)C[C@@H]3O[C@H]1C[C@H](N)[C@H](O)[C@H](C)O1` [doxorubicin, reference compound], in [4], the “tumor volume vs control” value is listed as “significantly reduced tumor volume compared to control treated animals” and the “total tumor weight vs control” value is “no effect on tumor weight, histology, tumor fat content, or tumor growth index”. Moreover, in test [5] (Cy3 positive area, vs control, p≤0.05, t-test), the “adiponectin staining vs control” value is recorded as “significantly increased”. In test [5], the “tumor fat content (residual adipose tissue)” value is recorded as “no effect on tumor weight, histology, tumor fat content, or tumor growth index”. Further, in test [6], the “tumor VEGF level” value was “neither treatment with doxorubicin alone or in combination with GU81 had significant effects on VEGF expression”. Moreover, the “tumor histology / progression / invasion” value in test [12] is “no effect on tumor weight, histology, tumor fat content, or tumor growth index; also recorded: displayed areas of invasive carcinoma; although the invasive component of the tumor was reduced when compared to control and GU81-treated animals; also recorded: clearly invasive adenocarcinomas”. In test [15] (from proliferation, apoptosis and growth index), the “cytostatic / cytocidal character of the therapy” value was “cytostatic”. In test [15] (phospho-histone-3 / cleaved caspase-3 positive cells per 200× field, vs control, p ≤ 0.05 for combination, 1-way ANOVA), the “tumor growth index vs control” value is reported as “no effect on tumor weight, histology, tumor fat content, or tumor growth index”. Besides, in [15] (vs control, p ≤ 0.01 (doxorubicin, combination), 1-way ANOVA, 3 animals/group, 5 sections/animal), the “phospho-histone-3 positive cells (proliferation) vs control” value is on record as “fewer phospho-histone-3 positive cells when compared to tumors from control treated animals”. In addition, the “cleaved (active) caspase-3 positive cells (apoptosis) vs control” value in [15] (vs control, p ≤ 0.05 (doxorubicin), 1-way ANOVA, 3 animals/group, 5 sections/animal) was “significantly fewer active caspase-3 positive cells when compared to tumors from control-treated animals”.
